Source: the Deep4Chem optical property database
“And” between values parts separate entries of the source, which are not always exact repeats. Identical values can stand only once. Values belong to the molecule of their own block, whether it stands above or below them.

Assay: solvent given as SMILES

SMILES: c1ccc(N(c2ccccc2)c2cc3c4c(c2)N(c2ccccc2)c2cc5c(cc2B4c2ccccc2N3c2ccccc2)B2c3ccccc3N(c3ccccc3)c3cc(N(c4ccccc4)c4ccccc4)cc(c32)N5c2ccccc2)cc1
emission maximum (in Cc1ccccc1): 468 nm
emission maximum (in Cc1ccccc1-c1cccc(Oc2cc3c4c(c2)Oc2cc(-c5ccccc5C)ccc2B4c2ccc(-c4ccccc4C)cc2O3)c1): 473 nm

SMILES: [O-]c1ccccc1-c1[nH+]c2c3ccccc3c3ccccc3c2o1
emission maximum (in Cc1ccccc1): 495 nm

SMILES: O=c1ccc2cc3c(cc2o1)OCC3
emission maximum (in CC(C)O): 400 nm
emission maximum (in CCO): 402 nm
emission maximum (in CCOCC): 397 nm
emission maximum (in CO): 405 nm
emission maximum (in O): 410 nm

SMILES: C[C@]12C(=O)NC(=O)N([C@H]3CC(O)[C@@H](CO)O3)[C@H]1[C@H]1Oc3cc4oc(=O)ccc4cc3[C@H]12 (some centres not stated)
emission maximum (in CC(C)O): 428 nm
emission maximum (in CCO): 432 nm
emission maximum (in CCOCC): 410 nm
emission maximum (in CO): 446 nm
emission maximum (in O): 465 nm

SMILES: CC(C)(C(=O)c1ccc(N2c3ccccc3C(C)(C)c3ccccc32)cc1)C(=O)c1ccc(N2c3ccccc3C(C)(C)c3ccccc32)cc1
emission maximum (in Cc1ccccc1): 506 nm
emission maximum (in c1ccc2c(c1)c1ccccc1n2-c1ccc(-c2ccc(-n3c4ccccc4c4ccccc43)cc2)cc1): 495.97 nm

SMILES: O=C1c2cc(F)ccc2-c2cnccc21
emission maximum (in CC#N): 540.43 nm
emission maximum (in CCCCCC): 486.26 nm

SMILES: CCCCCCCCc1ccc(-c2c3cc(-c4cc(CCCCCCCC)c(-c5ccc(-c6sc(/C=C7\SC(SCC)=NC7=O)cc6CCCCCCCC)s5)s4)sc3c(-c3ccc(CCCCCCCC)s3)c3cc(-c4cc(CCCCCCCC)c(-c5ccc(-c6sc(/C=C7\SC(SCC)=NC7=O)cc6CCCCCCCC)s5)s4)sc23)s1
emission maximum (in ClC(Cl)Cl): 653 nm

SMILES: COC(=O)C(Cc1ccc2oc(-c3ccc(N(C)C)cc3)nc2c1)NC(=O)OC(C)(C)C (configuration not stated)
emission maximum (in C1CCCCC1): 377 nm
emission maximum (in C1CCOC1): 391.5 nm
emission maximum (in C1COCCO1): 377 nm
emission maximum (in CC1CCCO1): 384.5 nm
emission maximum (in CC1COC(=O)O1): 404.01 nm
emission maximum (in CC#N): 395.51 nm
emission maximum (in CC(C)=O): 394.49 nm
emission maximum (in CC(C)CC(C)(C)C): 375 nm
emission maximum (in CC(C)CO): 396.49 nm
emission maximum (in CC(C)O): 397 nm
emission maximum (in CC(C)OC(C)C): 387.51 nm
emission maximum (in CC(O)CO): 408.5 nm
emission maximum (in CCC(C)CC): 374.5 nm
emission maximum (in CCCCC): 374 nm
emission maximum (in CCCCCC): 375 nm
emission maximum (in CCCCCCCCC): 376 nm
emission maximum (in CCCCCCCCCC): 377 nm
emission maximum (in CCCCCCCO): 396.49 nm
emission maximum (in CCCCCCO): 397.99 nm
emission maximum (in CCCCCO): 388.5 nm
emission maximum (in CCCCO): 399.5 nm
emission maximum (in CCO): 403 nm
emission maximum (in CCOC(C)=O): 381.5 nm
emission maximum (in CCOCC): 379.51 nm
emission maximum (in CN(C)C=O): 400.5 nm
emission maximum (in CO): 403.5 nm
emission maximum (in COCCOC): 395.51 nm
emission maximum (in CS(C)=O): 408.5 nm
emission maximum (in Cc1ccccc1): 374.5 nm
emission maximum (in Cc1ccccc1C): 373 nm
emission maximum (in ClC(Cl)Cl): 382 nm
emission maximum (in ClCCl): 388 nm
emission maximum (in NC=O): 411.51 nm
emission maximum (in OC1CCCCC1): 398.99 nm
emission maximum (in OCCO): 408.5 nm
emission maximum (in c1ccccc1): 375.5 nm

SMILES: CCC1=C(C)C2=Cc3c4ccccc4c4n3[B-](c3ccccc3)(Oc3ccccc3-4)[N+]2=C1C (configuration not stated)
emission maximum (in CC#N): 634 nm
emission maximum (in CCCCCC): 636 nm
emission maximum (in Cc1ccccc1): 640 nm
emission maximum (in ClCCl): 638 nm

SMILES: C#CCNC1=C2C=CC=[N+]2[B-](F)(F)n2cccc21
emission maximum (in C1CCCCC1): 482 nm and 486 nm
emission maximum (in CC(C)=O): 466.5 nm
emission maximum (in CCCCO): 463 nm
emission maximum (in CCCO): 467 nm
emission maximum (in CCO): 463 nm and 468 nm
emission maximum (in CCOC(C)=O): 469.5 nm
emission maximum (in CN(C)C=O): 458 nm
emission maximum (in CO): 464.5 nm
emission maximum (in CS(C)=O): 463 nm
emission maximum (in Cc1ccccc1): 485 nm
emission maximum (in ClC(Cl)Cl): 485 nm
emission maximum (in OCC(F)(F)F): 480.5 nm
emission maximum (in c1ccccc1): 485 nm

SMILES: C(=C\c1ccncn1)/c1ccc(-c2ccco2)cc1
emission maximum (in ClCCl): 401 nm

SMILES: COC(=O)/C(C#N)=c1\s/c(=c2/s/c(=C(/C#N)C(=O)OC)c3cc(-c4ccccc4)sc23)c2sc(-c3ccccc3)cc12
emission maximum (in Cc1ccccc1): 640 nm

SMILES: CCCCCCCCCCCCCCCCCCN1C(=O)c2ccc3c4ccc5c6c(ccc(c7ccc(c2c37)C1=O)c64)C(=O)N(CCCCCCCCCCCCCCCCCC)C5=O
emission maximum (in CN(C)C=O): 535 nm

SMILES: Cc1cc(N2c3ccccc3C3(c4ccccc4-c4ccccc43)c3ccccc32)c(C)cc1-c1nc(-c2ccccc2)nc(-c2ccccc2)n1
emission maximum (in Cc1ccccc1): 486 nm

SMILES: Cc1ccc(-c2c3ccc([nH]3)c3nc(c(-c4ccc([N+](=O)[O-])cc4)c4ccc([nH]4)c4ccc([nH]4)c(-c4ccc(C)cc4)c4ccc2o4)C=C3)cc1
emission maximum (in C1CCOC1): 758 nm
emission maximum (in Cc1ccccc1): 737 nm
emission maximum (in c1ccccc1): 737 nm

SMILES: [NH3+]C(Cc1ccc(O)cc1)C(=O)[O-] (configuration not stated)
emission maximum (in O): 304 nm

SMILES: N#Cc1ccc(-n2c(-c3ccc(-c4ccc(-n5c6ccccc6c6ccccc65)cc4)s3)nc3c4ccccc4c4ccccc4c32)c2ccccc12
emission maximum (in ClCCl): 400 nm

SMILES: COc1ccc(C2=C3C=CC(C)=[N+]3[B-](F)(F)n3c(C)ccc32)cc1
emission maximum (in C1CCCCC1): 521 nm
emission maximum (in C1CCOC1): 521 nm
emission maximum (in CC#N): 517 nm
emission maximum (in CCOC(C)=O): 518 nm
emission maximum (in CO): 518 nm
emission maximum (in Cc1ccccc1): 524 nm
emission maximum (in ClC(Cl)Cl): 523 nm

SMILES: CCCCCCCCCCCCOc1cc(/C=C/c2ccc3c(c2)C(CC)(CC)c2cc(N4c5ccccc5Sc5ccccc54)ccc2-3)c(OCCCCCCCCCCCC)cc1/C=C/c1ccc2c(c1)C(CC)(CC)c1cc(N3c4ccccc4Sc4ccccc43)ccc1-2
emission maximum (in C1CCOC1): 474 nm
emission maximum (in CC#N): 473 nm
emission maximum (in CCCCCC): 477 nm
emission maximum (in Cc1ccccc1): 468 nm
emission maximum (in ClCCl): 477 nm

SMILES: S=P1(c2ccccc2)C(c2ccccc2)=Cc2cc3ccccc3cc21 (configuration not stated)
emission maximum (in ClCCl): 425 nm

SMILES: C/C(=C\c1ccc(Cl)cc1)c1nc2ccccc2s1
emission maximum (in C1CCCCC1): 390 nm
emission maximum (in CO): 400 nm

SMILES: CCN(CC)c1ccc(C2=C3C(C)=CC(C)=[N+]3[B-](F)(F)n3c(C)cc(C)c32)cc1
emission maximum (in CO): 513 nm

SMILES: C[N+]1=C(/C=C/C=C2/N(CCCS(=O)(=O)[O-])c3ccccc3C2(C)C)C(C)(C)c2ccccc21
emission maximum (in CS(C)=O): 565 nm

SMILES: N#Cc1cc(C#N)c(-n2c3ccccc3c3cc(-c4ccc5c(c4)c4ccccc4n5-c4cc(-n5c6ccccc6c6ccccc65)c(C#N)cc4C#N)ccc32)cc1-n1c2ccccc2c2ccccc21
emission maximum (in O=P(c1ccccc1)(c1ccccc1)c1ccccc1Oc1ccccc1P(=O)(c1ccccc1)c1ccccc1): 470 nm

SMILES: CN(C)c1cc2c(cc1F)c(=O)c1cc(F)c(N)cc1n2C
emission maximum (in CCO): 432 nm

SMILES: CCC1=C(C)C2=C(c3ccc(-c4c5ccccc5c(-c5ccccc5)c5ccccc45)cc3)c3c(C)c(CC)c(C)n3[B-](F)(F)[N+]2=C1C
emission maximum (in CC#N): 534 nm
emission maximum (in CCCCCC): 536 nm
emission maximum (in CCO): 537 nm
emission maximum (in CN(C)C=O): 537 nm
emission maximum (in Cc1ccccc1): 539 nm
emission maximum (in ClCCl): 540 nm

SMILES: Cc1cc(C)cc(NC(=O)c2sc(Br)nc2C)c1
emission maximum (in C1CCOC1): 413.2 nm
emission maximum (in CC#N): 399 nm
emission maximum (in CCCCCC): 400.6 nm
emission maximum (in CCOC(C)=O): 405.5 nm
emission maximum (in CN(C)C=O): 398.2 nm
emission maximum (in CO): 402 nm
emission maximum (in CS(C)=O): 402.5 nm
emission maximum (in ClC(Cl)Cl): 411.5 nm

More lines, now with the values ahead:

emission maximum (in CC#N): 477 nm
emission maximum (in ClCCl): 474 nm
SMILES: COC(=O)c1cc(=O)n(Cc2ccccc2)c2cc(-c3ccc(OC)cc3)sc12

emission maximum (in CC#N): 458 nm
emission maximum (in CCCCCC): 392 nm
emission maximum (in CO): 483 nm
emission maximum (in ClC(Cl)Cl): 439 nm
SMILES: c1cc2ccc3cccc4c(-c5cc(-c6nccs6)nc(-c6nccs6)c5)cc(c1)c2c34

emission maximum (in CCCCCC): 380 nm
emission maximum (in CO): 380 nm
emission maximum (in ClCCl): 381 nm
SMILES: C[Si](C)(C)c1ccc2ccc3c([Si](C)(C)C)ccc4ccc1c2c43

emission maximum (in C1CCOC1): 393 nm
SMILES: c1ccc2c(c1)-c1ccccc1C21c2ccccc2-c2oc3c(c21)C1(c2ccccc2-c2ccccc21)c1ccccc1-3

emission maximum (in C1CCCCC1): 420 nm
emission maximum (in CO): 430 nm
SMILES: Clc1ccc(/C=C(\c2ccccc2)c2nc3ccccc3s2)cc1

emission maximum (in ClCCl): 564 nm
SMILES: COc1ccc2cc(/C=C/C3=C4CCc5ccccc5C4=[O+][B-](F)(F)O3)ccc2c1

emission maximum (in ClCCl): 468 nm
SMILES: COc1ccc(-c2cccc3ncc(-c4ccccc4)n23)cc1

emission maximum (in ClC(Cl)Cl): 560 nm
SMILES: Cc1ccc(S(=O)(=O)/N=c2\oc3cccc4c5c(-c6ccccc6)oc6cccc(c(c2-c2ccccc2)c34)c65)cc1

emission maximum (in ClCCl): 519 nm
SMILES: CCN(CC)c1ccc2cc(-c3nc4c5cccc6ccc7cccc(c7c65)c4n3-c3ccc(C(C)(C)C)cc3)c(=O)oc2c1

emission maximum (in ClCCl): 430 nm
SMILES: CCOC(=O)C1=C(C(=O)OCC)C2(c3ccccc3-c3ccccc32)[C@@H](c2ccccc2)C=C2c3cc(OC)c(OC)cc3CCN21

emission maximum (in CN(C)C=O): 409 nm
SMILES: c1ccc2[nH]c(-c3ccc(-c4ccc(-c5ccc(-c6nc7ccccc7[nH]6)cc5)cc4)cc3)nc2c1

emission maximum (in CC#N): 590 nm
SMILES: c1cc2c3c(cccc3c1)C(N1CCOCCOCCN(C3=Nc4cccc5cccc3c45)CCOCC1)=N2

emission maximum (in C1CCOC1): 556 nm
emission maximum (in CC#N): 611 nm
emission maximum (in CCCCCCC): 468 nm
emission maximum (in CS(C)=O): 622 nm
emission maximum (in ClCCl): 570 nm
SMILES: CN(C)c1ccc(/C=C/c2cnc3ccccc3n2)cc1

emission maximum (in C1CCOC1): 443 nm
emission maximum (in ClCCl): 454 nm
SMILES: COc1ccc(C2=Cc3ccccc3P2(=O)c2ccccc2)cc1 (configuration not stated)

emission maximum (in ClCCl): 746 nm
SMILES: CCN(CC)c1ccc2c(-c3ccccc3C(=O)O)c3c([o+]c2c1)/C(=C/c1nc(-c2ccccc2)n2ccccc12)CCC3

emission maximum (in ClCCl): 441 nm
SMILES: CC(C)(C)NC(=O)c1ccc(-c2cc3ccccc3s2)c2ccc3c4ccccc4c4ccccc4c3c12

emission maximum (in ClCCl): 510 nm
SMILES: COC(=O)C1=C(C(=O)OC)C2(c3ccccc3-c3ccc([N+](=O)[O-])cc32)C2(/C=C/c3ccccc3)c3cc(OC)c(OC)cc3CCN12 (configuration not stated)
